The values that follow come from PubChem BioAssay AID248 (DTP/NCI, 2004).

This assay concerns L1210 leukemia ip in BDF1 mice, survival T/C. Nature of the assay: NCI In Vivo Anticancer Drug Screen. Data for tumor model L1210 Leukemia (intraperitoneal) in B6D2F1 (BDF1) mice. Particulars: endpoint: mean survival time, higher = longer survival. Put shortly:
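Ratio derived from survival: compound-dosed mice over vehicle-dosed mice, all bearing a transplantable tumor.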

Setting [1] is: dose: 75.0 mg/kg/injection, schedule: Q01DX001 (ip), vehicle: other.
[2] abbreviates: dose: 100.0 mg/kg/injection, schedule: Q01DX009 (ip), vehicle: saline with Tween-80.
Setting [3] is: dose: 100.0 mg/kg/injection, schedule: Q04DX003 (ip), vehicle: saline with Tween-80.
Where [4] appears, read: dose: 200.0 mg/kg/injection, schedule: Q01DX009 (ip), vehicle: saline with Tween-80.
Where [5] appears, read: dose: 200.0 mg/kg/injection, schedule: Q04DX003 (ip), vehicle: saline with Tween-80.
[6] abbreviates: dose: 400.0 mg/kg/injection, schedule: Q01DX009 (ip), vehicle: saline with Tween-80.
Setting [7] is: dose: 400.0 mg/kg/injection, schedule: Q04DX003 (ip), vehicle: saline with Tween-80.
The mark [8] stands for this setting: dose: 100.0 mg/kg/injection, schedule: Q01DX001 (ip), vehicle: saline with Tween-80.
[9] abbreviates: dose: 200.0 mg/kg/injection, schedule: Q01DX001 (ip), vehicle: saline with Tween-80.
Setting [10] is: dose: 400.0 mg/kg/injection, schedule: Q01DX001 (ip), vehicle: saline with Tween-80.
[11] abbreviates: dose: 100.0 mg/kg/injection, schedule: Q01DX001 (ip), vehicle: saline.
[12] abbreviates: dose: 200.0 mg/kg/injection, schedule: Q01DX001 (ip), vehicle: saline.
Where [13] appears, read: dose: 100.0 mg/kg/injection, schedule: Q04DX003 (ip), vehicle: saline.
The mark [14] stands for this setting: dose: 400.0 mg/kg/injection, schedule: Q04DX003 (ip), vehicle: saline.
[15] abbreviates: dose: 100.0 mg/kg/injection, schedule: Q04DX003 (ip), vehicle: Klucel (hydroxypropylcellulose) (HPC).
The mark [16] stands for this setting: dose: 200.0 mg/kg/injection, schedule: Q04DX003 (ip), vehicle: Klucel (hydroxypropylcellulose) (HPC).
[17] abbreviates: dose: 400.0 mg/kg/injection, schedule: Q04DX003 (ip), vehicle: Klucel (hydroxypropylcellulose) (HPC).
[18] abbreviates: dose: 100.0 mg/kg/injection, schedule: Q01DX009 (ip), vehicle: Klucel (hydroxypropylcellulose) (HPC).
The mark [19] stands for this setting: dose: 200.0 mg/kg/injection, schedule: Q01DX009 (ip), vehicle: Klucel (hydroxypropylcellulose) (HPC).
The mark [20] stands for this setting: dose: 400.0 mg/kg/injection, schedule: Q01DX009 (ip), vehicle: Klucel (hydroxypropylcellulose) (HPC).
Setting [21] is: dose: 50.0 mg/kg/injection, schedule: Q01DX001 (ip), vehicle: carboxymethylcellulose (CMC).
The mark [22] stands for this setting: dose: 100.0 mg/kg/injection, schedule: Q01DX001 (ip), vehicle: carboxymethylcellulose (CMC).
Setting [23] is: dose: 200.0 mg/kg/injection, schedule: Q01DX001 (ip), vehicle: carboxymethylcellulose (CMC).
Setting [24] is: dose: 400.0 mg/kg/injection, schedule: Q01DX001 (ip), vehicle: saline.

Several values for one entry are separate records, joined by “and”; a condition that tells them apart may be missing. Identical values can stand only once. Toxic doses and inconclusive results are not listed.

As for `O=C(Nc1ccc(NC2=NCCN2)cc1)c1ccc(C(=O)Nc2ccc(NC3=NCCN3)cc2)c([N+](=O)[O-])c1`, the T/C reads like this: (dose: 1.88 mg/kg/injection, schedule: Q01DX Z (ip), vehicle: saline) 92 % of control; (dose: 3.75 mg/kg/injection, schedule: Q01DX Z (ip), vehicle: saline) 97 % of control; (dose: 7.5 mg/kg/injection, schedule: Q01DX Z (ip), vehicle: saline) 106 % of control; (dose: 7.5 mg/kg/injection, schedule: Q01DX Z (oral), vehicle: saline) 94 % of control; (dose: 15.0 mg/kg/injection, schedule: Q01DX Z (ip), vehicle: saline) 110 % of control and 89 % of control; (dose: 15.0 mg/kg/injection, schedule: Q01DX Z (oral), vehicle: saline) 95 % of control. Also, the T/C was 91 % of control (dose: 30.0 mg/kg/injection, schedule: Q01DX Z (oral), vehicle: saline) and 100 % of control (dose: 60.0 mg/kg/injection, schedule: Q01DX Z (oral), vehicle: saline).

As for `O=C(Nc1ccc(C(=O)O)cc1)Oc1ccc(N(CCCl)CCCl)cc1`, the T/C is 114 % of control (dose: 6.0 mg/kg/injection, schedule: Q01DX009 (ip), vehicle: other); 106 % of control (dose: 6.0 mg/kg/injection, schedule: Q01DX009 (ip), vehicle: saline); 122 % of control (dose: 12.0 mg/kg/injection, schedule: Q01DX009 (ip), vehicle: other); 117 % of control (dose: 12.0 mg/kg/injection, schedule: Q01DX009 (ip), vehicle: saline); 114 % of control (dose: 37.5 mg/kg/injection, schedule: Q01DX001 (ip), vehicle: other); 160 % of control (dose: 48.0 mg/kg/injection, schedule: Q01DX009 (ip), vehicle: other). The T/C runs as follows: (dose: 75.0 mg/kg/injection, schedule: Q01DX001 (ip), vehicle: carboxymethylcellulose (CMC)) 124 % of control; under setting [1], 121 % of control; (dose: 96.0 mg/kg/injection, schedule: Q01DX009 (ip), vehicle: other) 101 % of control; (dose: 96.0 mg/kg/injection, schedule: Q01DX009 (ip), vehicle: saline) 91 % of control; (dose: 300.0 mg/kg/injection, schedule: Q01DX001 (ip), vehicle: other) 117 % of control.

As for `Cc1cc(Cl)c2ccccc2c1N`, the T/C was 106 % of control under setting [2]; 104 % of control under setting [3]; 96 % of control under setting [4]; 102 % of control under setting [5]; 98 % of control under setting [6]; 100 % of control under setting [7].

As for `CCCCCCCC(=O)NC1CCC(C(C)(C)C)CC1` (stereo unspecified), the T/C by setting is: (dose: 100.0 mg/kg/injection, schedule: Q01DX009 (ip), vehicle: other) 100 % of control; (dose: 200.0 mg/kg/injection, schedule: Q01DX009 (ip), vehicle: other) 97 % of control; (dose: 400.0 mg/kg/injection, schedule: Q01DX009 (ip), vehicle: other) 106 % of control.

Turning to `CNS(=O)(=O)c1cccc(C(N)=S)c1`, the T/C is 105 % of control under setting [8], 100 % of control under setting [9] and 100 % of control under setting [10].

For `C[N+](C)(C)N=C1CCCCC1`, the T/C is, setting by setting: under setting [11], 104 % of control; under setting [12], 104 % of control.

For the compound `CS(=O)(=O)NOCCCCONS(C)(=O)=O`, the T/C under setting [8] is 103 % of control, the T/C under setting [9] is 91 % of control and the T/C under setting [10] was 92 % of control.

On to `COc1cccc(NC(=O)Oc2ccc(Cl)cc2Cl)c1`, for which the T/C reads like this: (dose: 100.0 mg/kg/injection, schedule: Q04DX002 (ip), vehicle: Klucel (hydroxypropylcellulose) (HPC)) 88 % of control; (dose: 200.0 mg/kg/injection, schedule: Q04DX002 (ip), vehicle: Klucel (hydroxypropylcellulose) (HPC)) 88 % of control.

On to `CC(=O)Nc1c(O)c(Cl)c(Cl)c(Cl)c1Cl`, for which the T/C was 105 % of control under setting [13]; 101 % of control (dose: 200.0 mg/kg/injection, schedule: Q04DX003 (ip), vehicle: saline); 94 % of control under setting [14].

Consider `Cc1cc(N(CCCl)CCCl)ccc1C=Nc1cc(Cl)ccc1-n1ccnc1C`, for which the T/C was 98 % of control (dose: 50.0 mg/kg/injection, schedule: Q04DX003 (ip), vehicle: Klucel (hydroxypropylcellulose) (HPC)); 98 % of control under setting [15]; 101 % of control under setting [16]; 90 % of control under setting [17].

Regarding `S=C(S)NCCc1ccccn1`, the T/C is, setting by setting: under setting [3], 95 % of control; under setting [5], 87 % of control; under setting [7], 98 % of control.

For the compound `O=C1c2c(I)c(I)c(I)c(I)c2C(=O)N1CCO`, the T/C is 92 % of control under setting [18]; 94 % of control under setting [15]; 97 % of control under setting [19]; 97 % of control under setting [16]; 104 % of control under setting [20]; 92 % of control under setting [17].

As to `Cc1cccc(C)c1NC(=O)Nc1ccc(C(=O)O)cc1`, the T/C is 101 % of control under setting [18], 108 % of control under setting [19] and 103 % of control under setting [20].

With `COc1ccc(NC(=O)Nc2cc(Cl)ccc2Cl)cc1`, the T/C under setting [3] was 90 % of control, the T/C under setting [5] was 92 % of control and the T/C under setting [7] is 92 % of control.

Regarding `NNc1ccccc1Cl`, the T/C was 108 % of control under setting [21]; 102 % of control under setting [1]; 97 % of control under setting [22]; 93 % of control (dose: 150.0 mg/kg/injection, schedule: Q01DX001 (ip), vehicle: other); 108 % of control under setting [23].

For `Cc1c(Cl)cccc1NC(=O)Nc1cccc(C(F)(F)F)c1`, the T/C runs as follows: under setting [8], 87 % of control and 88 % of control; under setting [2], 94 % of control and 104 % of control; (dose: 100.0 mg/kg/injection, schedule: Q04DX002 (ip), vehicle: saline with Tween-80) 93 % of control and 90 % of control; under setting [3], 94 % of control; under setting [9], 91 % of control; under setting [4], 93 % of control and 97 % of control. For the same compound, the T/C reads like this: (dose: 200.0 mg/kg/injection, schedule: Q04DX002 (ip), vehicle: saline with Tween-80) 88 % of control and 89 % of control; under setting [5], 97 % of control; under setting [10], 94 % of control and 89 % of control; under setting [6], 100 % of control and 104 % of control; (dose: 400.0 mg/kg/injection, schedule: Q04DX002 (ip), vehicle: saline with Tween-80) 100 % of control and 90 % of control; under setting [7], 96 % of control.

For `COC(=O)CNC(=O)C(CSCc1ccccc1)NC(=O)OCc1ccccc1` (stereo unspecified), the T/C was 94 % of control under setting [15], 89 % of control under setting [16] and 99 % of control under setting [17].

With `CN(C)c1nc(N)nc2c1nc(Cl)n2C1OC(CO)C(O)C1O` (stereo unspecified), the T/C is, setting by setting: under setting [11], 97 % of control; under setting [12], 94 % of control; under setting [24], 105 % of control.

Regarding `COC(=O)CC(=O)/C(=C/C(C/C=C(\C(=O)CC(=O)OC)C(=O)OC)OC)C(=O)OC` (stereo unspecified), the T/C runs as follows: under setting [21], 103 % of control; under setting [22], 101 % of control; under setting [23], 101 % of control; (dose: 400.0 mg/kg/injection, schedule: Q01DX001 (ip), vehicle: carboxymethylcellulose (CMC)) 100 % of control.

For the compound `Oc1cncc2ccccc12`, the T/C is 94 % of control under setting [13] and 90 % of control under setting [14].

With `CCOC(=O)C(C(C)=O)C(CCc1cc(OC)ccc1OC)C(C(C)=O)C(=O)OCC` (stereo unspecified), the T/C is, setting by setting: under setting [11], 109 % of control; under setting [12], 101 % of control; under setting [24], 97 % of control.

Turning to `CC(=O)Nc1ccc2c(=O)cc[nH]c2n1`, the T/C reads like this: (dose: 50.0 mg/kg/injection, schedule: Q01DX001 (ip), vehicle: saline) 89 % of control; under setting [11], 93 % of control; under setting [12], 106 % of control; under setting [24], 95 % of control.
